Measurements: patent publication US20140073634A1 (Institute For Applied Cancer Science/The University of …, priority 2012, published 2014)
pIC50: −log10 of the molar value.

What follows are compounds tested on 293T-HRE-GFP-luc cells (assay: Cell-based reporter assay for IC50 determinations (HRE-luciferase, hypoxia)). Details: 6 h, 6 hrs hypoxia (1% O2), luminescence.
Method: Cell-Based Reporter Assay for IC50 Determinations
293T-HRE-GFP-luc cells were routinely maintained in DMEM media (high glucose version with GlutaMAX and HEPES, Gibco, catalog #10564) supplemented with 10% fetal bovine serum and 2 μg/mL puromycin (Invitrogen, catalog #A11138-03) using a humidified incubator (normoxia conditions consisting of 37° C., 5% CO2 and ambient O2).
In preparation for the reporter assay, cells were harvested and resuspended in DMEM media (high glucose version with GlutaMAX and HEPES) supplemented with 10% fetal bovine serum. Cells were inoculated into 384-well white Culturplates (Perkin Elmer catalog #6007680) at a density of 12,000 cells/well in a volume of […]. The microplates were incubated overnight (approximately 17-19 hours) at 37° C. with 5% CO2 and ambient O2. Stock solutions of the test compounds were prepared in DMSO (Sigma, Catalog #D2650) and serially diluted 1:3 using DMSO. Compounds were additionally diluted (1:50) with culturemedium and 10 µL were added per well to the Culturplate. Following a 30 min. incubation under normoxia conditions, the plates were incubated in hypoxia for 6 hrs. (37° C., 5% CO2 and 1% O2). Steadylite Plus (Perkin Elmer, catalog #6016751) was then added ([…]), the plates were mixed on an orbital shaker at room temperature in the dark for 15 min., and luminescence was measured using an Envision plate reader (Perkin Elmer). IC50 values were calculated using a four-parameter logistic curve fit. Results are shown below in Table 2; ND indicates no data.
Cc1ccc(Cn2cc(-c3nc(-c4ccc(OC(F)(F)F)cc4)no3)ccc2=O)cc1 [Example 26, 1-(4-Methylbenzyl)-5-(3-(4-(trifluoromethoxy)phenyl)-1,2,4-oxadiazol-5-yl)pyridin-2(1H)-one] was tested, and the pIC50 was > 7.00.
Cc1ccc(-c2nnc(-c3ccc(OC(F)(F)F)cc3)o2)c(=O)n1Cc1ccnc(N2CCOCC2)c1 [Example 27, 6-Methyl-1-((2-morpholinopyridin-4-yl)methyl)-3-(5-(4-(trifluoromethoxy)phenyl)-1,3,4-oxadiazol-2-yl)pyridin-2(1H)-one] was tested, and the pIC50 was 6.00 to 7.00.
Cc1ccc(-c2nnc(-c3ccc(OC(F)(F)F)cc3)o2)c(=O)n1Cc1ccnc(N2CCC(C#N)CC2)c1 [Example 28, 1-(4-((6-Methyl-2-oxo-3-(5-(4-(trifluoromethoxy)phenyl)-1,3,4-oxadiazol-2-yl)pyridin-1(2H)-yl)methyl)pyridin-2-yl)piperidine-4-carbonitrile] showed a pIC50 of 6.00 to 7.00.
For COC(=O)Cc1cccc(Cn2nc(-c3nc(-c4ccc(OC(F)(F)F)cc4)no3)ccc2=O)c1 [Example 29, Methyl 2-{3-[(6-oxo-3-{3-[4-(trifluoromethoxy)phenyl]-1,2,4-oxadiazol-5-yl}-1,6-dihydropyridazin-1-yl)methyl]phenyl}acetate], the pIC50 was > 7.00.
With COC(=O)C(C)(C)c1cccc(Cn2nc(-c3nc(-c4ccc(OC(F)(F)F)cc4)no3)ccc2=O)c1 [Example 30, Methyl 2-methyl-2-{3-[(6-oxo-3-{3-[4-(trifluoromethoxy)phenyl]-1,2,4-oxadiazol-5-yl}-1,6-dihydropyridazin-1-yl)methyl]phenyl}propanoate] the pIC50 was > 7.00.
In the case of O=c1ccc(-c2nc(-c3ccc(OC(F)(F)F)cc3)no2)cn1Cc1cccc(N2CCCC2)c1 [Example 31, 1-{[3-(Pyrrolidin-1-yl)phenyl]methyl}-5-{3-[4-(trifluoromethoxy)phenyl]-1,2,4-oxadiazol-5-yl}-1,2-dihydropyridin-2-one], the pIC50 was > 7.00.
For O=c1ccc(-c2nc(-c3ccc(OC(F)(F)F)cc3)no2)cn1Cc1cccc(O)c1 [Example 32, 1-[(3-Hydroxyphenyl)methyl]-5-{3-[4-(trifluoromethoxy)phenyl]-1,2,4-oxadiazol-5-yl}-1,2-dihydropyridin-2-one], the pIC50 was 6.00 to 7.00.
COCCOc1cccc(Cn2cc(-c3nc(-c4ccc(OC(F)(F)F)cc4)no3)ccc2=O)c1 [Example 33, 1-{[3-(2-Methoxyethoxy)phenyl]methyl}-5-{3-[4-(trifluoromethoxy)phenyl]-1,2,4-oxadiazol-5-yl}-1,2-dihydropyridin-2-one] showed a pIC50 of 6.00 to 7.00.
In the case of NCCOc1cccc(Cn2cc(-c3nc(-c4ccc(OC(F)(F)F)cc4)no3)ccc2=O)c1 [Example 34, 1-{[3-(2-Aminoethoxy)phenyl]methyl}-5-{3-[4-(trifluoromethoxy)phenyl]-1,2,4-oxadiazol-5-yl}-1,2-dihydropyridin-2-one], the pIC50 was > 7.00.
For CN(C)S(=O)(=O)c1cccc(Cn2cc(-c3nc(-c4ccc(OC(F)(F)F)cc4)no3)ccc2=O)c1 [Example 35, N,N-Dimethyl-3-[(2-oxo-5-{3-[4-(trifluoromethoxy)phenyl]-1,2,4-oxadiazol-5-yl}-1,2-dihydropyridin-1-yl)methyl]benzene-1-sulfonamide], the pIC50 was > 7.00.
Compound CC(C)(C(=O)O)c1cccc(Cn2cc(-c3nc(-c4ccc(OC(F)(F)F)cc4)no3)ccc2=O)c1 [Example 36, 2-Methyl-2-{3-[(2-oxo-5-{3-[4-(trifluoromethoxy)phenyl]-1,2,4-oxadiazol-5-yl}-1,2-dihydropyridin-1-yl)methyl]phenyl}propanoic acid] has a pIC50 of 6.00 to 7.00.
CCCS(=O)(=O)c1cccc(Cn2cc(-c3nc(-c4ccc(OC(F)(F)F)cc4)no3)ccc2=O)c1 [Example 37, 1-{[3-(propane-1-sulfonyl)phenyl]methyl}-5-{3-[4-(trifluoromethoxy)phenyl]-1,2,4-oxadiazol-5-yl}-1,2-dihydropyridin-2-one] was tested, and the pIC50 was > 7.00.
CC(C)(CO)c1cccc(Cn2cc(-c3nc(-c4ccc(OC(F)(F)F)cc4)no3)ccc2=O)c1 [Example 38, 1-{[3-(1-Hydroxy-2-methylpropan-2-yl)phenyl]methyl}-5-{3-[4-(trifluoromethoxy)phenyl]-1,2,4-oxadiazol-5-yl}-1,2-dihydropyridin-2-one] gave a pIC50 of 6.00 to 7.00.
For CC(C)(O)c1cccc(Cn2cc(-c3nc(-c4ccc(OC(F)(F)F)cc4)no3)ccc2=O)c1 [Example 39, 1-{[3-(2-Hydroxypropan-2-yl)phenyl]methyl}-5-{3-[4-(trifluoromethoxy)phenyl]-1,2,4-oxadiazol-5-yl}-1,2-dihydropyridin-2-one], the pIC50 was > 7.00.
In the case of CN(C)C(=O)/C=C/c1cccc(Cn2cc(-c3nc(-c4ccc(OC(F)(F)F)cc4)no3)ccc2=O)c1 [Example 40, (2E)-N,N-dimethyl-3-{3-[(2-oxo-5-{3-[4-(trifluoromethoxy)phenyl]-1,2,4-oxadiazol-5-yl}-1,2-dihydropyridin-1-yl)methyl]phenyl}prop-2-enamide], the pIC50 was > 7.00.
For CS(=O)(=O)C1CCN(c2cccc(Cn3cc(-c4nc(-c5ccc(OC(F)(F)F)cc5)no4)ccc3=O)c2)CC1 [Example 41, 1-{[3-(4-Methanesulfonylpiperidin-1-yl)phenyl]methyl}-5-{3-[4-(trifluoromethoxy)phenyl]-1,2,4-oxadiazol-5-yl}-1,2-dihydropyridin-2-one], the pIC50 was > 7.00.
In the case of O=c1ccc(-c2nc(-c3ccc(OC(F)(F)F)cc3)no2)cn1Cc1cccc(CCO)c1 [Example 42, 1-{[3-(2-Hydroxyethyl)phenyl]methyl}-5-{3-[4-(trifluoromethoxy)phenyl]-1,2,4-oxadiazol-5-yl}-1,2-dihydropyridin-2-one], the pIC50 was > 7.00.
With O=c1ccc(-c2nc(-c3ccc(OC(F)(F)F)cc3)no2)cn1Cc1cccc(CO)c1 [Example 43, 1-{[3-(Hydroxymethyl)phenyl]methyl}-5-{3-[4-(trifluoromethoxy)phenyl]-1,2,4-oxadiazol-5-yl}-1,2-dihydropyridin-2-one] the pIC50 was > 7.00.
In the case of CC(=O)SCc1cccc(Cn2cc(-c3nc(-c4ccc(OC(F)(F)F)cc4)no3)ccc2=O)c1 [Example 44, 1-({3-[(Acetylsulfanyl)methyl]phenyl}methyl)-5-{3-[4-(trifluoromethoxy)phenyl]-1,2,4-oxadiazol-5-yl}-1,2-dihydropyridin-2-one], the pIC50 was > 7.00.
In the case of O=c1ccc(-c2nc(-c3ccc(OC(F)(F)F)cc3)no2)cn1Cc1cccc(CS)c1 [Example 45, 1-{[3-(Sulfanylmethyl)phenyl]methyl}-5-{3-[4-(trifluoromethoxy)phenyl]-1,2,4-oxadiazol-5-yl}-1,2-dihydropyridin-2-one], the pIC50 was > 7.00.
In the case of COC(=O)CCc1cccc(Cn2cc(-c3nc(-c4ccc(OC(F)(F)F)cc4)no3)ccc2=O)c1 [Example 46, Methyl 3-{3-[(2-oxo-5-{3-[4-(trifluoromethoxy)phenyl]-1,2,4-oxadiazol-5-yl}-1,2-dihydropyridin-1-yl)methyl]phenyl}propanoate], the pIC50 was > 7.00.
O=C(O)CCc1cccc(Cn2cc(-c3nc(-c4ccc(OC(F)(F)F)cc4)no3)ccc2=O)c1 [Example 47, 3-{3-[(2-oxo-5-{3-[4-(trifluoromethoxy)phenyl]-1,2,4-oxadiazol-5-yl}-1,2-dihydropyridin-1-yl)methyl]phenyl}propanoic acid] was tested, and the pIC50 was 6.00 to 7.00.
For O=c1ccc(-c2nc(-c3ccc(OC(F)(F)F)cc3)no2)cn1Cc1cccc(CCCO)c1 [Example 48, 1-{[3-(3-Hydroxypropyl)phenyl]methyl}-5-{3-[4-(trifluoromethoxy)phenyl]-1,2,4-oxadiazol-5-yl}-1,2-dihydropyridin-2-one], the pIC50 was > 7.00.
In the case of CN(C)C(=O)CCc1cccc(Cn2cc(-c3nc(-c4ccc(OC(F)(F)F)cc4)no3)ccc2=O)c1 [Example 49, N,N-Dimethyl-3-{3-[(2-oxo-5-{3-[4-(trifluoromethoxy)phenyl]-1,2,4-oxadiazol-5-yl}-1,2-dihydropyridin-1-yl)methyl]phenyl}propanamide], the pIC50 was > 7.00.
CC(C)(O)c1cc(Cn2cc(-c3nc(-c4ccc(OC(F)(F)F)cc4)no3)ccc2=O)ccn1 [Example 50, 1-{[2-(2-Hydroxypropan-2-yl)pyridin-4-yl]methyl}-5-{3-[4-(trifluoromethoxy)phenyl]-1,2,4-oxadiazol-5-yl}-1,2-dihydropyridin-2-one] gave a pIC50 of 6.00 to 7.00.
With COCCOc1cc(Cn2cc(-c3nc(-c4ccc(OC(F)(F)F)cc4)no3)ccc2=O)ccn1 [Example 51, 1-{[2-(2-Methoxyethoxy)pyridin-4-yl]methyl}-5-{3-[4-(trifluoromethoxy)phenyl]-1,2,4-oxadiazol-5-yl}-1,2-dihydropyridin-2-one] the pIC50 was 6.00 to 7.00.
With C=Cc1cccc(Cn2cc(-c3nc(-c4ccc(OC(F)(F)F)cc4)no3)ccc2=O)c1 [Example 52, 5-(3-(4-(Trifluoromethoxy)phenyl)-1,2,4-oxadiazol-5-yl)-1-(3-vinylbenzyl)pyridin-2(1H)-one] the pIC50 was > 7.00.
O=c1ccc(-c2nc(-c3ccc(OC(F)(F)F)cc3)no2)cn1Cc1cccc(C(O)CO)c1 (centres unmarked) [Example 53, 1-(3-(1,2-Dihydroxyethyl)benzyl)-5-(3-(4-(trifluoromethoxy)phenyl)-1,2,4-oxadiazol-5-yl)pyridin-2(1H)-one] was tested, and the pIC50 was > 7.00.
C=CCOc1cccc(Cn2cc(-c3nc(-c4ccc(OC(F)(F)F)cc4)no3)ccc2=O)c1 [Example 54, 1-(3-(Allyloxy)benzyl)-5-(3-(4-(trifluoromethoxy)phenyl)-1,2,4-oxadiazol-5-yl)pyridin-2(1H)-one] was tested, and the pIC50 was > 7.00.
